Where “and” joins values, the source holds several entries; their conditions need not be identical. Equal entries are not always repeated. No end group written: not given here.
Tests used:
[1] = system: Escherichia coli (ML35); assay type: cell-based; conditions: E. coli ML35; 1 × 10^7 CFU/mL; 1% TSB, 10 mM Hepes; 10, 20 and 30 μM peptide, 1 h at 37 °C; serial dilution, 18 h at 37 °C in complete TSB; turbidity; duplicate
Experimental: (§1) The strains used, Staphylococcus aureus (ATCC 25923) and Escherichia coli (ML35), were obtained from the Public Health Institute of Chile (ISP).
(§2) To determine the antibacterial activity of the peptides, a microplate dilution test was performed. The necessary calculations were completed with a bacterial concentration of 1 × 10^7 CFU/mL and the cells were exposed to 50 µL of Tryptic soy broth (TSB) with 1%, 10 mM of Hepes buffer and 10, 20 and 30 μM of peptide for 1 h at 37 °C. Finally, a serial dilution was performed and incubated for 18 h at 37 °C in complete TSB, and the minimum bactericidal concentration (MCB) was determined depending on the turbidity of the plate. All experiments were completed in duplicate. A synthetic peptide of sequence KKWRWWLKALAKK from the venom of the Bothrops asper snake was used as a positive control for growth inhibition.

[2] = system: Staphylococcus aureus (ATCC 25923); assay type: cell-based; conditions: S. aureus ATCC 25923; 1 × 10^7 CFU/mL; 1% TSB, 10 mM Hepes; 10, 20 and 30 μM peptide, 1 h at 37 °C; serial dilution, 18 h at 37 °C in complete TSB; turbidity; duplicate
Experimental: as §1, §2

[3] = system: E coli; experiment: Membrane permeabilization by SYTOX green assay; assay type: cell-based, Escherichia coli; conditions: E. coli 1 × 10^6 CFU/mL in PBS 1X; 90 µL bacteria, 5 µL peptide at 200 µM, 5 µL SYTOX Green at 100 µM; 30 cycles of one minute at 30 °C; triplicate
Experimental: (§3) To verify the effect of peptides on cell membrane integrity, a SYTOX green uptake assay was used, as previously described. Briefly, E coli and S. aureus cultures in exponential phase of growth were centrifuged at 2000× g for 5 min and washed with PBS 1X to prepare a solution at a concentration of 1 × 10^6 CFU/mL in PBS 1X. Then, in 100 μL qPCR tubes, 90 µL of the bacterial solution, 5 µL of peptide at 200 µM and 5 µL of SYTOX Green dye at 100 µM were added. The q-PCR tubes were placed in an Applied Biosystems StepOnePlus™ Real-Time PCR Systems thermocycler, programmed with 30 cycles for one minute at 30 °C, using the Syber green filter, recording the fluorescence data at the end of each cycle. Each assay was performed in triplicate.

[4] = system: S. aureus; experiment: Membrane permeabilization by SYTOX green assay; assay type: cell-based, Staphylococcus aureus; conditions: S. aureus 1 × 10^6 CFU/mL in PBS 1X; 90 µL bacteria, 5 µL peptide at 200 µM, 5 µL SYTOX Green at 100 µM; 30 cycles of one minute at 30 °C; triplicate
Experimental: as §3

Molecule	Minimum Bactericidal Concentration [1] [µM]	Minimum Bactericidal Concentration [2] [µM]	further results
RRRARRRRRRR-NH2 [A4]	26		Percentage of polyproline II, Equation (2): 46% (2×) and 58% and 51%
RRRRPRRRRRR-NH2 [P5]	28	8	
RRRRRRRRRLR-NH2 [L10]	20		
RRRRRRRWRRR-NH2 [W8]	20	20	
RRRRRRPRRRR-NH2 [P7]	10	7	
C[C@H](N)C(=O)N[C@@H](CCCNC(=N)N)C(=O)N[C@@H](CCCNC(=N)N)C(=O)N[C@@H](CCCNC(=N)N)C(=O)N[C@@H](CCCNC(=N)N)C(=O)N[C@@H](CCCNC(=N)N)C(=O)N[C@@H](CCCNC(=N)N)C(=O)N[C@@H](CCCNC(=N)N)C(=O)N[C@@H](CCCNC(=N)N)C(=O)N[C@@H](CCCNC(=N)N)C(=O)N[C@@H](CCCNC(=N)N)C(N)=O [A1]	>30		
RRWRRRRRRRR-NH2 [W3]	>30	20	
RRRRRRRRRPR-NH2 [P10]	30	30	
RRARRRRRRRR-NH2 [A3]	10		
N=C(N)NCCC[C@H](NC(=O)[C@H](CCCNC(=N)N)NC(=O)[C@H](CCCNC(=N)N)NC(=O)[C@H](CCCNC(=N)N)NC(=O)[C@H](CCCNC(=N)N)NC(=O)[C@H](CCCNC(=N)N)NC(=O)[C@H](CCCNC(=N)N)NC(=O)[C@H](CCCNC(=N)N)NC(=O)[C@H](CCCNC(=N)N)NC(=O)[C@H](CCCNC(=N)N)NC(=O)[C@@H](N)CCCNC(=N)N)C(N)=O [R11]	30		
RRRRRRARRRR-NH2 [A7]	20		
KKWRWWLKALAKK			SYTOX green fluorescence (membrane permeabilization) [3]: high fluorescence; SYTOX green fluorescence (membrane permeabilization) [4]: high fluorescence
RRRRRRLRRRR-NH2 [L7]	9		
RRRWRRRRRRR-NH2 [W4]	20	20	
N=C(N)NCCC[C@H](NC(=O)[C@H](CCCNC(=N)N)NC(=O)[C@H](CCCNC(=N)N)NC(=O)[C@H](CCCNC(=N)N)NC(=O)[C@H](CCCNC(=N)N)NC(=O)[C@@H](N)CCCNC(=N)N)C(=O)N[C@@H](CCCNC(=N)N)C(=O)N[C@@H](CCCNC(=N)N)C(=O)N[C@@H](CCCNC(=N)N)C(=O)N[C@@H](CCCNC(=N)N)C(=O)N1CCC[C@H]1C(N)=O [P11]	30	18	
CC(C)C[C@H](NC(=O)[C@H](CCCNC(=N)N)NC(=O)[C@H](CCCNC(=N)N)NC(=O)[C@H](CCCNC(=N)N)NC(=O)[C@H](CCCNC(=N)N)NC(=O)[C@H](CCCNC(=N)N)NC(=O)[C@H](CCCNC(=N)N)NC(=O)[C@H](CCCNC(=N)N)NC(=O)[C@H](CCCNC(=N)N)NC(=O)[C@H](CCCNC(=N)N)NC(=O)[C@@H](N)CCCNC(=N)N)C(N)=O [L11]	30		
RRRRWRRRRRR-NH2 [W5]	20	10	
RRRRRRWRRRR-NH2 [W7]	14	8	
RRRRARRRRRR-NH2 [A5]	20		
RRRRRRRRRAR-NH2 [A10]	10	6	
RLRRRRRRRRR-NH2 [L2]	8	12	
RRRRLRRRRRR-NH2 [L5]	18	8	
RRRRRRRRLRR-NH2 [L9]	8		

Molecule	Minimum Bactericidal Concentration [1] [µM]	Minimum Bactericidal Concentration [2] [µM]	further results
RRRPRRRRRRR-NH2 [P4]	>30		Percentage of polyproline II, Equation (2): 49% (2×) and 29% and 41%
RRRRRWRRRRR-NH2 [W6]	15	20	
RPRRRRRRRRR-NH2 [P2]	30		
RRRRRARRRRR-NH2 [A6]	26		
RRRRRRRPRRR-NH2 [P8]	30	9	Percentage of polyproline II, Equation (2): 49% (2×) and 40% and 50%
N=C(N)NCCC[C@H](NC(=O)[C@H](CCCNC(=N)N)NC(=O)[C@H](CCCNC(=N)N)NC(=O)[C@H](CCCNC(=N)N)NC(=O)[C@H](CCCNC(=N)N)NC(=O)[C@H](CCCNC(=N)N)NC(=O)[C@H](CCCNC(=N)N)NC(=O)[C@H](CCCNC(=N)N)NC(=O)[C@H](CCCNC(=N)N)NC(=O)[C@H](CCCNC(=N)N)NC(=O)[C@@H](N)Cc1c[nH]c2ccccc12)C(N)=O [W1]	30	>30	
RRRRRRRRARR-NH2 [A9]	>30		
RWRRRRRRRRR-NH2 [W2]	>30	30	Percentage of polyproline II, Equation (2): 56% (2×) and 64% and 47%
RRPRRRRRRRR-NH2 [P3]	28	8	
CC(C)C[C@H](N)C(=O)N[C@@H](CCCNC(=N)N)C(=O)N[C@@H](CCCNC(=N)N)C(=O)N[C@@H](CCCNC(=N)N)C(=O)N[C@@H](CCCNC(=N)N)C(=O)N[C@@H](CCCNC(=N)N)C(=O)N[C@@H](CCCNC(=N)N)C(=O)N[C@@H](CCCNC(=N)N)C(=O)N[C@@H](CCCNC(=N)N)C(=O)N[C@@H](CCCNC(=N)N)C(=O)N[C@@H](CCCNC(=N)N)C(N)=O [L1]	13	9	
RRRRRRRRPRR-NH2 [P9]	20	10	Percentage of polyproline II, Equation (2): 41% (2×) and 27% and 43%
C[C@H](NC(=O)[C@H](CCCNC(=N)N)NC(=O)[C@H](CCCNC(=N)N)NC(=O)[C@H](CCCNC(=N)N)NC(=O)[C@H](CCCNC(=N)N)NC(=O)[C@H](CCCNC(=N)N)NC(=O)[C@H](CCCNC(=N)N)NC(=O)[C@H](CCCNC(=N)N)NC(=O)[C@H](CCCNC(=N)N)NC(=O)[C@H](CCCNC(=N)N)NC(=O)[C@@H](N)CCCNC(=N)N)C(N)=O [A11]	20	8	Percentage of polyproline II, Equation (2): 49% (2×) and 45% and 50%
RRRRRPRRRRR-NH2 [P6]	18		
RARRRRRRRRR-NH2 [A2]	18		
RRRRRLRRRRR-NH2 [L6]	>30	28	
RRRLRRRRRRR-NH2 [L4]	20	9	
RRLRRRRRRRR-NH2 [L3]	10	9	
N=C(N)NCCC[C@H](NC(=O)[C@H](CCCNC(=N)N)NC(=O)[C@H](CCCNC(=N)N)NC(=O)[C@H](CCCNC(=N)N)NC(=O)[C@H](CCCNC(=N)N)NC(=O)[C@H](CCCNC(=N)N)NC(=O)[C@H](CCCNC(=N)N)NC(=O)[C@H](CCCNC(=N)N)NC(=O)[C@H](CCCNC(=N)N)NC(=O)[C@@H](N)CCCNC(=N)N)C(=O)N[C@@H](Cc1c[nH]c2ccccc12)C(N)=O [W11]	20	10	
RRRRRRRARRR-NH2 [A8]	30		
N=C(N)NCCC[C@H](NC(=O)[C@H](CCCNC(=N)N)NC(=O)[C@H](CCCNC(=N)N)NC(=O)[C@H](CCCNC(=N)N)NC(=O)[C@H](CCCNC(=N)N)NC(=O)[C@H](CCCNC(=N)N)NC(=O)[C@H](CCCNC(=N)N)NC(=O)[C@H](CCCNC(=N)N)NC(=O)[C@H](CCCNC(=N)N)NC(=O)[C@H](CCCNC(=N)N)NC(=O)[C@@H]1CCCN1)C(N)=O [P1]	18		
RRRRRRRRRWR-NH2 [W10]	20		Percentage of polyproline II, Equation (2): 46% and 68% and 49% (2×)
RRRRRRRLRRR-NH2 [L8]	18		Percentage of polyproline II, Equation (2): 51% and 65% (2×) and 62%
RRRRRRRRWRR-NH2 [W9]	20	10	

Source: article PMC9788509, “Arginine Homopeptide of 11 Residues as a Model of Cell-Penetrating Peptides in the Interaction with Bacterial Membranes” (Membranes, 2022)
